In patent US9439941B2, “Nano cancer barrier device (NCBD) to immobilize and inhibit the division of metastic cancer stem cells” (The University of Hong Kong, priority 2009, dated 2016):
Entries after “also recorded” stand apart in the source; their conditions may differ.

Key:
[1] = system: hormone refractory prostate cancer (HRPC); settings: HRPC patients, Docetaxel-based chemotherapy; cited from earlier work
[2] = system: prostate cancer cells (DU145); assay: spheroid (prostasphere) / colony formation of prostate cancer stem cells embedded in SAP, non-adherent plate; type: cell-based; settings: for state of CSCs: 14 days after plating; for prostasphere detection: 14 days after plating in non-adherent plate
Procedure: The SAP solution was prepared by using RADA16-I dry powder (made in the Ellis-Behnke lab) and mixed in an Eppendorf tube. The solution contained 10 or 30 mg of RADA16-I powder in 1 ml of Milli-Q water (Millipore Corp., Billerica Mass.), mixed, then sonicated for 30 seconds and filtered; this produced 1% and 3% SAP, respectively.
Pre-mix medium for spheroid assay. Mix 50 ml SFM (DMEM-F12-high glucose with 0.25% methylcellulose) and add 1 ml b27 per 50 ml SFM (50× stock). The growth factors are: fibroblast growth factor-basic (FGF) (Sigma cat. no. F0291)—25 μg dissolved in 1.0 ml of 5 mM Tris (pH 7.6) and sterilized with a 0.22 μm pore size filter (make 20 μl aliquots (stored at −20° C.) and add 10 μl per 50 ml of SFM); Epidermal growth factor (EGF) (Sigma cat. no. E4127)—0.1 mg dissolved in 1.0 ml of phosphate-buffered saline containing 0.1% bovine serum albumin (Sigma cat. no. A7511) (make […] (stored at −20° C.) and add 10 μl per 50 ml of SFM); Insulin 10 mg/ml—add 20 μl per 50 ml.
To remove prostate cancer cells (DU145, ATCC, Rockville, Md.) from adherent culture, trypsin was used to liberate and then re-suspend 400 cells per 1 μl plated in each well (10). Before plating the cells, the plate was coated with polyhema (Sigma, St. Louis, Mo.).
(§1) Untreated SAP solution has a very low pH (about 3-4). We neutralized the SAP solution in culture medium before implanting cells in the material. Briefly, for both 1% and 3%, SAP was placed in a dry dish and then 500 μl of culture medium added at the edge of the dish. This was to ensure that the culture medium would not wash the SAP away. The self-assembly occurred as soon as the material made contact with the medium. The medium was changed once at 30 minutes, and then removed. The 400 cells were placed either in the assembled SAP or a control well. Culture medium was then added at the edge of the dish in both SAP cases, and topped up every 2 days to compensate for evaporation. On day 14, the cells were vigorously washed out of the SAP using culture medium. In the 1% case, group 1 (n=4), the cells and SAP were moved to a new well and contents were washed multiple times to separate them from the SAP. In the 3% case, group 2 (n=4), the wells were also vigorously washed to remove the cells from the SAP. However, in both the 1% and 3% SAP concentration, not all of the cells were liberated. The culture continued to grow for 28 days at which point the wells were fixed with 4% paraformaldahyde.

[3] = pH of untreated SAP solution; type: physicochemical; settings: before neutralization in culture medium
Procedure: as §1

## CC(=O)O[C@@]12CO[C@@H]1C[C@H](O)[C@@]1(C)C(=O)[C@H](O)C3=C(C)[C@@H](OC(=O)[C@H](O)[C@@H](NC(=O)OC(C)(C)C)c4ccccc4)C[C@@](O)([C@@H](OC(=O)c4ccccc4)[C@H]21)C3(C)C [Docetaxel]
[1]
  improvement of median survival time: 3 months

## n-RADARADARADARADA-c [SAP]
[2]; 1% SAP
  state of CSCs: most of the CSCs remained single cells
  prostasphere detection: no prostaspheres could be detected
[2]; 1% SAP, cells not liberated by day-14 washout
  time remaining cells continued to be quiescent (no division, no colony formation): up to 28 days
[2]; 1% SAP, day 10
  state of cells at day 10 (FIG. 1G): still single cells
[2]; 1% SAP, group 1 (n=4)
  cell division and colony formation while cells are in the material: remained quiescent; also recorded: delayed division and formation of colonies
[2]; 1% and 3% SAP
  colonies when cells completely surrounded by the material: no colonies were seen
[2]; 1% and 3% SAP, some cases
  colonies when part of the cell was exposed: a colony of reduced size was seen
[2]; 1% and 3% SAP, experiment then stopped
  time proliferation of cells was suspended: 28 days
[2]; 3% SAP
  state of CSCs: most of the CSCs remained single cells
  prostasphere detection: no prostaspheres could be detected
[2]; 3% SAP, at 28 days
  cell division or colony formation of cells that remained in the material: no cell division or colony formation
[2]; 3% SAP, day 10
  state of cells at day 10 (FIG. 1H): still single cells
[2]; 3% SAP, day 28
  size of single cell remaining in SAP (FIG. 1O): still the same size as day 1
[2]; CSCs from prostate cancer cell lines embedded in SAP
  time CSCs remained quiescent: more than 28 days
[2]; SAP, viability and CSC property preserved
  self-renewal of prostate CSC: completely inhibit
[2]; cells washed out of 1% SAP
  time until colonization visible post-washout: 10 days
[2]; cells washed out of 1% SAP and replated
  viability and self-renewal of embedded cells after washout: viable and capable of self-renewal
[2]; cells washed out of 1% SAP at day 14, replated in non-adherent plate
  time until prostaspheres visible after washout: 8 days
[2]; cells washed out of 3% SAP at day 14
  time until prostaspheres evident post-washout: 8 days
[2]; each group, cells placed in the SAP
  division of cancer cells in vitro and subsequent colony formation: stopped
[3]
  pH of untreated SAP solution: 3-4
